Laboratory results published in patent publication US7078424B2, “N-linked sulfonamides of N-heterocyclic carboxylic acids or carboxylic acid isosteres” (GPI NIL Holdings, Inc., priority 1998, dated 2006).

Test system: dopaminergic neurons
Assay: MPTP model of Parkinson's Disease in mice (MPTP Neurodegenerative Model)
Format: in vivo
Conditions: recovery of TH-stained dopaminergic neurons in striatum; male CD1 mice, MPTP 30 mg/kg i.p. 5 days; test compound 4 mg/kg s.c. concurrent with MPTP plus 5 further days; sacrificed at 18 days
Procedure: MPTP lesioning of dopaminergic neurons in mice is used as an animal model of Parkinson's Disease. Four week old male CD1 white mice are dosed i.p. with 30 mg/kg of MPTP for 5 days. Test compounds (4 mg/kg), or vehicle, are administered s.c. along with the MPTP for 5 days, as well as for an additional 5 days following cessation of MPTP treatment. At 18 days following MPTP treatment, the animals are sacrificed and the striata dissected and perfusion-fixed. Immunostaining is performed on saggital and coronal brain sections using anti-tyrosine hydroxylase […] to quantitate survival and recovery of dopaminergic neurons. In animals treated with MPTP and vehicle, a substantial loss of functional dopaminergic terminals is observed as compared to non-lesioned animals. Lesioned animals receiving test compounds show a significant recovery of TH-stained dopaminergic neurons. This model presents quantitation for the recovery of TH-positive dopaminergic neurons in the striatum of animals receiving the compounds of the present invention. […]
Percent striatal innervation density was quantitated is in brain sections with an anti-tyrosine hydroxylase immunoglobulin, which is indicative of functional dopaminergic neurons. […]

With `O=C(O)[C@@H]1CCCN1S(=O)(=O)Cc1ccccc1` [Compound A, (2S)-N-(benzylsulfonyl)-2-pyrrolidinecarboxylic Acid] the “% Recovery” value was 24.4%.
